Here are results for 25 compounds from patent publication US10030012B2, “Piperidin-1-yl and azepin-1-yl carboxylates as muscarinic M4 receptor agonists” (Heptares Therapeutics Limited, priority 2013, dated 2018).

For one experiment, the target named is human M2 receptor (Homo sapiens (Human), UniProt P08172). The experiment is described as follows: In vitro M2 functional assay (intracellular calcium, FLiPR Tetra). It is filed as cell-based. The note with it: for EC50 / M2 EC50: CHOK1 cells stably expressing human M2 receptor and Gα16, calcium flux, No Response = no significant response of calcium flux indicative of agonism; for activation at 10 µM: response at 10 μM compound, relative to an EC100 concentration of acetylcholine, read-out: M2 % RE @ 10 μM; for M2 % RE: relative efficacy to an EC100 concentration of acetylcholine. The method, then:
(§1) In Vitro M4 &M2 Functional Assay
(§2) The functional activity of compounds at the M4 and M2 receptors was determined by measuring changes in the level of intracellular calcium ions caused by signalling cascades mediated by the receptor. Intracellular Calcium levels were measured using a calcium sensitive fluorescent dye, calcium 5 (Molecular Devices) The changes in fluorescence were monitored by a fluorescent imager, FLiPR Tetra (Molecular devices). Increases in intracellular calcium were readily detected upon activation of both receptors by the muscarinic receptor agonist Acetylcholine.
(§3) CHOK1 cells stably expressing human M4 or M2 receptor and co-expressing the accessory g-protein Gα16 were routinely grown as monolayers in Hams-F12 medium (Invitrogen) supplemented with 10% foetal bovine serum (FBS) (Hyclone), 500 ug/mL Geneticin and 250 ug/mL zeocin (both invitrogen) in 5% CO2 at 37° C. Once confluent is cells cryopreserved by freezing at −186° C. in freezing solution (90% FBS 10% DMSO) (Sigma-Aldrich Co.). Twenty-four hours prior to testing cells resuscitated and freezing media removed via centrifugation, cells then seeded in a black walled clear bottom 384 well plates (Corning) at a density of 15,000 cells/well in Hams F12 media supplemented with 10% FBS. On the day of assay, growth media was removed and replaced with 63 μl of Calcium 5 dye solution (Molecular Devices) in assay buffer (HBSS, 20 mM HEPES, 0.1% BSA, 1 mM Probenecid pH7.4 (Sigma-Aldrich Co.)) per well (each vial of Calcium 5 resuspended in 27 mL of assay buffer). Cells were then incubated for 45 minutes at 37° C., 5% CO2. Compound was serially diluted in DMSO (log/half log) before being diluted 1:20 with assay buffer. 7 μl of compound diluted in assay buffer was then added to cells on FLiPR tetra and fluorescence intensity measured for 5 minutes. EC50 values for compounds were determined from ten point half log scale dose-response studies and represent the concentration of compound required to […] maximal response. Curves were generated using the average of duplicate wells for each data point and analyzed using non-linear regression of four parameter dose response. Percentage Relative efficacy (RE) to an EC100 concentration of acetylcholine was reported for all compounds. The results are set out in Table 3 below in which the term “No Response” means that there was no significant response of calcium flux in the assay indicative of agonism.
Background: Calcium assays in cells follow changes in intracellular calcium, usually with a dye or a luminescent sensor.

Another experiment deals with human M4 receptor (Homo sapiens (Human), UniProt P08173). The experiment can be described thus: In vitro M4 functional assay (intracellular calcium, FLiPR Tetra). It counts as cell-based. The conditions noted are these: for Emax: relative efficacy to an EC100 concentration of acetylcholine, read-out: M4 % RE. The method, then: as §1, §2, §3
Where [1] appears, read: CHOK1 cells stably expressing human M4 receptor and Gα16, calcium flux.

Sequence of human M4 receptor (P08173 whole entry): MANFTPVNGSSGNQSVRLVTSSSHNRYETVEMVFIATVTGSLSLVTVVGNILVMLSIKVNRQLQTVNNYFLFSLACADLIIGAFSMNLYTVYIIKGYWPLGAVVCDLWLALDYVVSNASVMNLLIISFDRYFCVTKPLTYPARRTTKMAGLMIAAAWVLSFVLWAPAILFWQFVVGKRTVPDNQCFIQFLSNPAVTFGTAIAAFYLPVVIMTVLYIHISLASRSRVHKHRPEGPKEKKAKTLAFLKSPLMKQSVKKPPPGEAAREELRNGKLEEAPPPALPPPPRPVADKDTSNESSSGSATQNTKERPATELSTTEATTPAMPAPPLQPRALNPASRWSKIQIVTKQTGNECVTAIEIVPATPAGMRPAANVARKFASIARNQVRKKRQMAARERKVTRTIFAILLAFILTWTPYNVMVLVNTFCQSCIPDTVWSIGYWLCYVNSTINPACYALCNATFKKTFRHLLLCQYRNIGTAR
Sequence of human M2 receptor (P08172 whole entry): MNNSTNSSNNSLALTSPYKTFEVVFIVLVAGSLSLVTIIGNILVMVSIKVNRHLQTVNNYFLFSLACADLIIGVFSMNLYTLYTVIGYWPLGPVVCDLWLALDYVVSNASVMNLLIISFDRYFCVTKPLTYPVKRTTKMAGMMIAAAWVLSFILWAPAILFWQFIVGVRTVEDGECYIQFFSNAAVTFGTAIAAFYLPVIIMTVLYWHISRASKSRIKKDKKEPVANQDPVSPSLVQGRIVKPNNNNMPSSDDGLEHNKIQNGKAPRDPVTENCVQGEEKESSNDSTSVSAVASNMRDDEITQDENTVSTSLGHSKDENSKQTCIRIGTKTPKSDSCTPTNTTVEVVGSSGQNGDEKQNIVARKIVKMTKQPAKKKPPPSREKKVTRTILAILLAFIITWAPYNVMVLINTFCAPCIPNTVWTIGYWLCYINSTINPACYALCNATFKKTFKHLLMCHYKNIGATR

For the compound `CCOC(=O)N1CCC(N2CCC(c3nccn3C)CC2)CC1` [Example 1, Ethyl 4-[4-(1-methyl-1H-imidazol-2-yl)piperidin-1-yl]piperidine-1-carboxylate], on human M2 receptor, the concentration giving a half-maximal response (EC50) (as a rule, the concentration at which the effect is half-maximal) is greater than 10000 nM and the activation at 10 µM amounted to 34%. Further, the EC50 at human M4 receptor (setting [1]) came to 2360 nM. Moreover, the Emax at human M4 receptor was 49%.
As to `CCOC(=O)N1CCCC(N2CCC(c3nccn3CC(=O)NC3CCCCC3)CC2)CC1` (centres unmarked) [Example 2, Ethyl 4-(4-{1-[(cyclohexylcarbamoyl)methyl]-1H-imidazol-2-yl}piperidin-1-yl)azepane-1-carboxylate], on human M2 receptor, the “M2 EC50” value was “No Response”. In addition, at human M4 receptor (setting [1]), the EC50 was 1870 nM. In addition, on human M4 receptor, the Emax came out at 51%.
As to `CCOC(=O)N1CCCC(N2CCC(n3cccc3)CC2)CC1` (centres unmarked) [Example 3, Ethyl 4-[4-(1H-pyrrol-1-yl)piperidin-1yl]azepane-1-carboxylate], at human M2 receptor, the concentration for a half-maximal effect (EC50) came to 1540 nM and the “M2 % RE” value is 38%. On human M4 receptor (setting [1]), the concentration giving a half-maximal response (EC50) is 330 nM. Also, the Emax at human M4 receptor worked out at 59%.
Take `CCOC(=O)N1CCCC(N2CCC(n3cccn3)CC2)CC1` (centres unmarked) [Example 4, Ethyl 4-[4-(1H-pyrazol-1-yl)piperidin-1yl]azepane-1-carboxylate]: at human M2 receptor, the “M2 EC50” value was “No Response”. In addition, the EC50 on human M4 receptor (setting [1]) is 140 nM. For the same compound, the Emax at human M4 receptor is 74%.
`CCOC(=O)N1CCCC(N2CCC(n3nccc3-c3ccc(Cl)cc3)CC2)CC1` (centres unmarked) [Example 5, Ethyl 4-{4-[5-(4-chlorophenyl)-1H-pyrazol-1-yl]piperidin-1-yl}azepane-1-carboxylate]: the EC50 at human M2 receptor was greater than 10000 nM; on human M4 receptor (setting [1]), 250 nM. Moreover, the activation at 10 µM on human M2 receptor was found to be 25%. Further, on human M4 receptor, the Emax worked out at 49%.
On to `CCOC(=O)N1CCCC(N2CCC(c3cc[nH]n3)CC2)CC1` (centres unmarked) [Example 6, Ethyl 4-[4-(1H-pyrazol-3-yl)piperidin-1yl]azepane-1-carboxylate], for which the “M2 EC50” value on human M2 receptor was “No Response”. In addition, the EC50 at human M4 receptor (setting [1]) stood at 190 nM. For the same compound, at human M4 receptor, the Emax is 53%.
As to `CCOC(=O)N1CCCC(N2CCC(n3nccc3-c3ccnn3C)CC2)CC1` (centres unmarked) [Example 7, Ethyl 4-{4-[5-(1-methyl-1H-pyrazol-5-yl)-1H-pyrazol-1-yl]piperidin-1-yl}azepane-1-carboxylate], the 50% effective concentration (EC50) on human M2 receptor is greater than 10000 nM; on human M4 receptor (setting [1]), 260 nM. For the same compound, on human M2 receptor, the activation at 10 µM turned out to be 26%. Also, the Emax on human M4 receptor stood at 75%.
Turning to `CCOC(=O)N1CCCC(N2CCC(n3cc(-c4ccc(Cl)cc4)cn3)CC2)CC1` (centres unmarked) [Example 8, Ethyl 4-{4-[4-(4-chlorophenyl)-1H-pyrazol-1-yl]piperidin-1-yl}azepane-1-carboxylate], on human M2 receptor, the “M2 EC50” value is “No Response”. Further, the 50% effective concentration (EC50) on human M4 receptor (setting [1]) was 320 nM. Besides, the Emax on human M4 receptor amounted to 59%.
In the case of `CCOC(=O)N1CCCC(N2CCC(c3nccn3C)CC2)CC1` (centres unmarked) [Example 9, Ethyl 4-[4-(1-methyl-1H-imidazol-2-yl)piperidin-1-yl]azepane-1-carboxylate], the “M2 EC50” value on human M2 receptor is “No Response”. Further, at human M4 receptor (setting [1]), the EC50 came to 1050 nM. For the same compound, the Emax on human M4 receptor was 62%.
The matching figures for `CCOC(=O)N1CCCC(N2CCC(c3nccn3CC)CC2)CC1` (centres unmarked) [Example 10, Ethyl 4-[4-(1-ethyl-1H-imidazol-2-yl)piperidin-1-yl]azepane-1-carboxylate]: “No Response”, 1740 nM and 44%.
As to `CCCn1ccnc1C1CCN(C2CCCN(C(=O)OCC)CC2)CC1` (centres unmarked) [Example 11, Ethyl 4-[4-(1-propyl-1H-imidazol-2-yl)piperidin-1-yl]azepane-1-carboxylate], the “M2 EC50” value at human M2 receptor was “No Response”. Besides, at human M4 receptor (setting [1]), the EC50 was determined as 960 nM. Moreover, the Emax at human M4 receptor worked out at 41%.
`CCOC(=O)N1CCCC(N2CCC(n3nccc3C)CC2)CC1` (centres unmarked) [Example 12, Ethyl 4-[4-(5-methyl-1H-pyrazol-1-yl)piperidin-1-yl]azepane-1-carboxylate]: the EC50 at human M2 receptor was greater than 10000 nM; on human M4 receptor (setting [1]), 520 nM. For the same compound, the activation at 10 µM on human M2 receptor is 28%. The Emax on human M4 receptor is 82%.
In the case of `CCOC(=O)N1CCCC(N2CCC(OC)(c3nccn3C)CC2)CC1` (centres unmarked) [Example 13, Ethyl 4-[4-methoxy-4-(1-methyl-1H-imidazol-2-yl)piperidin-1-yl]azepane-1-carboxylate], the “M2 EC50” value on human M2 receptor is given as “No Response”. Moreover, on human M4 receptor (setting [1]), the concentration for a half-maximal effect (EC50) was determined as 2880 nM. Moreover, at human M4 receptor, the Emax was 24%.
The matching figures for `CCOC(=O)N1CCCC(N2CCC(c3ccnn3C)CC2)CC1` (centres unmarked) [Example 14, Ethyl 4-[4-(1-methyl-1H-pyrazol-5-yl)piperidin-1-yl]azepane-1-carboxylate]: “No Response”, 750 nM and 55%.
On to `CCOC(=O)N1CCCC(N2CCC(c3nnc(C(C)C)o3)CC2)CC1` (centres unmarked) [Example 15, Ethyl 4-(4-(5-isopropyl-1,3,4-oxadiazol-2-yl)piperidin-1-yl)azepane-1-carboxylate], for which the “M2 EC50” value on human M2 receptor is given as “No Response”. Also, the EC50 on human M4 receptor (setting [1]) was determined as 1280 nM. Moreover, the Emax on human M4 receptor amounted to 44%.
As for `CCOC(=O)N1CCCC(N2CCC(n3ccc(C)n3)CC2)CC1` (centres unmarked) [Example 16, Ethyl 4-[4-(3-methyl-1H-pyrazol-1-yl)piperidin-1-yl]azepane-1-carboxylate], at human M2 receptor, the EC50 is greater than 10000 nM and the activation at 10 µM stood at 24%. In addition, on human M4 receptor (setting [1]), the EC50 was found to be 400 nM. Moreover, on human M4 receptor, the Emax was 72%.
With `CCOC(=O)N1CCCC(N2CCC(c3cc(-c4cccs4)n[nH]3)CC2)CC1` (centres unmarked) [Example 17, Ethyl 4-{4-[3-(thiophen-2-yl)-1H-pyrazol-5-yl]piperidin-1-yl}azepane-1-carboxylate], the “M2 EC50” value at human M2 receptor is reported as “No Response”. Besides, the concentration giving a half-maximal response (EC50) on human M4 receptor (setting [1]) is 810 nM. For the same compound, the Emax on human M4 receptor worked out at 50%.
Consider `CCOC(=O)N1CCCC(N2CCC(n3cc(-c4ccc(F)cc4)cn3)CC2)CC1` (centres unmarked) [Example 18, Ethyl 4-{4-[4-(4-fluorophenyl)-1H-pyrazol-1-yl]piperidin-1-yl}azepane-1-carboxylate], for which the “M2 EC50” value at human M2 receptor is “No Response”. Also, at human M4 receptor (setting [1]), the EC50 is 410 nM. Further, the Emax at human M4 receptor amounted to 45%.
The matching figures for `CCOC(=O)N1CCCC(N2CCC(c3nccn3CC(=O)NC3CC3)CC2)CC1` (centres unmarked) [Example 19, Ethyl 4-(4-{1-[(cyclopropylcarbamoyl)methyl]-1H-imidazol-2-yl}piperidin-1-yl)azepane-1-carboxylate]: “No Response”, 1510 nM and 64%.
As to `CCOC(=O)N1CCCC(N2CCC(n3nccc3C3CC3)CC2)CC1` (centres unmarked) [Example 20, Ethyl 4-[4-(5-cyclopropyl-1H-pyrazol-1-yl)piperidin-1-yl]azepane-1-carboxylate], on human M2 receptor, the EC50 was determined as 2260 nM and the “M2 % RE” value is recorded as 37%. In addition, the EC50 on human M4 receptor (setting [1]) was determined as 190 nM. For the same compound, the Emax on human M4 receptor is 77%.
In the case of `CCOC(=O)N1CCCC(N2CCC(n3nccc3C(=O)N(C)C)CC2)CC1` (centres unmarked) [Example 21, Ethyl 4-{4-[5-(dimethylcarbamoyl)-1H-pyrazol-1-yl]piperidin-1-yl}azepane-1-carboxylate], the “M2 EC50” value on human M2 receptor is listed as “No Response”. Further, the EC50 on human M4 receptor (setting [1]) came out at 2680 nM. In addition, the Emax on human M4 receptor worked out at 45%.
For `CCOC(=O)N1CCCC(N2CCC(n3nccc3-c3cnn(C(C)C)c3)CC2)CC1` (centres unmarked) [Example 22, Ethyl 4-(4-{5-[1-(propan-2-yl)-1H-pyrazol-4-yl]-1H-pyrazol-1-yl}piperidin-1-yl)azepane-1-carboxylate], the figures for the EC50 on human M2 receptor and at human M4 receptor (setting [1]) were 680 nM and 200 nM, respectively. At human M2 receptor, the “M2 % RE” value worked out at 38%. Besides, on human M4 receptor, the Emax was found to be 68%.
On to `CCOC(=O)N1CCCC(N2CCC(n3nccc3COC)CC2)CC1` (centres unmarked) [Example 23, Ethyl 4-{4-[5-(methoxymethyl)-1H-pyrazol-1-yl]piperidin-1-yl}azepane-1-carboxylate], for which the “M2 EC50” value at human M2 receptor is reported as “No Response”. For the same compound, the concentration for a half-maximal effect (EC50) at human M4 receptor (setting [1]) was 750 nM. Moreover, the Emax on human M4 receptor is 67%.
As for `CCOC(=O)N1CCC[C@@H](N2CCC(n3cccn3)CC2)CC1` [Example 82, Ethyl (4R)-4-[4-(1H-pyrazol-1-yl)piperidin-1-yl]azepane-1-carboxylate], the EC50 on human M4 receptor (setting [1]) came out at 460 nM. Moreover, the Emax at human M4 receptor came to 80%.
`CCOC(=O)N1CCC[C@@H](N2CCC(c3nccn3C)CC2)CC1` [Example 84, Ethyl (4R)-4-[4-(1-methyl-1H-imidazol-2-yl)piperidin-1-yl]azepane-1-carboxylate]: on human M4 receptor (setting [1]), the “M4 EC50” value is “No response”.
